We go through 17 compounds from patent US20250092080A1, “FLEX-NUCLEOSIDE ANALOGUES, NOVEL THERAPEUTICS AGAINST VIRUSES” (priority 2022, published 2025).

The EC50 is the concentration giving half of the maximal effect. What is called IC50 is the concentration that gives 50% inhibition. High values mean weaker potency, low ones greater potency. A word on the IC90: it is the point of the concentration-response curve where the effect stands at 90%. A lower IC90 goes with greater potency. What is called EC90 is the concentration needed for an effect of 90%. Low values mean an effect from little substance, high ones a need for much substance.

The test system of series [1] is Ebola Virus. The experiment in a line: microbe, parasite or virus in culture. It counts as cell-based, strain Zaire.
The nature of series [2]: in vitro.
The nature of series [3]: Cell viability in A549 (parallel to Rubella screening). It counts as cell-based. As to conditions: human, A549 cells, RA-0001522.
For another series, the system named is Rubella Virus. In words: Rubella Virus antiviral screening, A549. In kind it is cell-based.
Another series deals with Rift Valley Fever Virus. The experiment in a line: microbe, parasite or virus in culture. It counts as cell-based.
For a further series, the system named is Huh7 cells. As to conditions: human.
Series [4] has as its system Dengue Virus 2. The experiment in a line: DENV2 antiviral activity (Tables 11-15). In kind it is cell-based. As to conditions: for IC50: DENV2.
Series [5] is described as follows: in vitro. To be noted: human.
For another series, the system named is Dengue Virus 4. In words: DENV4 antiviral activity (Tables 11-15). In kind it is cell-based.
Series [6] has as its system Ebola Virus. The experiment in a line: microbe, parasite or virus in culture. In kind it is cell-based. As to conditions: Zaire ebolavirus, Huh-7.
The test system of another series is SARS-CoV-2. The experiment in a line: SARS-CoV-2 (A549) #2 antiviral activity. It counts as cell-based. To be noted: Severe acute respiratory syndrome coronavirus 2, lab #2.
The test system of another series is SARS-CoV-2 (WA-1). The experiment in a line: SARS-CoV-2 (WA)(A549) #1 antiviral activity. It counts as cell-based. To be noted: Severe acute respiratory syndrome coronavirus 2; WA-1 strain in A549 cells; lab #1.
A short description of series [7]: in vitro. As to conditions: human. This is another data set of the same source.
The nature of series [8]: Cytotoxicity printed in the DENV4 lines (Tables 11-15). To be noted: cells not given. It counts as cell-based.
A short description of series [9]: Cytotoxicity, A549 cells, lab #1. As to conditions: human.
The next series deals with SARS-CoV-2 (Omicron). The experiment in a line: SARS-CoV-2 (Omicron) (Calu3) #1 antiviral activity. In kind it is cell-based. As to conditions: Severe acute respiratory syndrome coronavirus 2; Omicron strain in Calu-3 cells; lab #1.
The test system of a further series is Chikungunya Virus. The experiment in a line: CHIKV antiviral activity (Tables 11-15). In kind it is cell-based.
Series [10] has as its system Venezuelan Equine Encephalitis Virus. The experiment in a line: microbe, parasite or virus in culture. It counts as cell-based.
The nature of series [11]: Cytotoxicity printed in the CHIKV line (Table 11).
Series [12] can be described thus: in vitro. This is another data set of the same source.
The nature of series [13]: Cytotoxicity, A549, lab #2. To be noted: human, A549 cells.
A short description of series [14]: in vitro. As to conditions: human. The source holds these as a separate data set.
For a further series, the system named is Epstein-Barr virus. In words: microbe, parasite or virus in culture. In kind it is cell-based, strain Akata. As to conditions: human gammaherpesvirus 4, Akata.
For another series, the system named is Enterovirus-71. In words: organism not typed. It counts as cell-based.
Series [15] relates to Dengue Virus 2. The experiment in a line: microbe, parasite or virus in culture. It counts as cell-based, strain New Guinea C. As to conditions: Huh-7.
The next series relates to MERS Coronavirus. In kind it is cell-based, strain EMC.
Series [16] can be described thus: Cytotoxicity, Calu3 (WA test). It counts as cell-based. To be noted: human, Calu3 cells; Calu3 (WA lines).
The subject of another series is SARS-CoV-2 (WA). In words: SARS-CoV-2 (WA)(Calu3) antiviral activity. As to conditions: Severe acute respiratory syndrome coronavirus 2, Calu-3. It counts as cell-based, WA strain.

Several values for one entry are separate records, joined by “and”; a condition that tells them apart may be missing. Equal entries are not always repeated. Where two headings read alike, the source gives them in different places.

As for `CNc1nc(N)ncc1-c1cn([C@@H]2O[C@H](COP(=O)(NC(C)C(=O)OC(C)C)Oc3ccccc3)C(O)C2(C)F)cn1` (stereo in doubt) [CDW3-002, propan-2-yl-(2S)-2-(((((2R,3R,4R,5R)-5-(4-(2-amino-4-(methylamino)pyrimidin-5-yl)-1H-imidazol-1-yl)-4-fluoro-3-hydroxy-4-methyloxolan-2-yl)methyl)(phenyl)phosphono)amino) propanoate], in the series with Ebola Virus [1] (Zaire ebolavirus, Vero, read-out: EC50), the EC50 worked out at 30 µM. The CC50 in “in vitro [2]” was > 100 µM; in series [3] it was 97.2 µM. The IC50 with Rubella Virus was determined as 69.9 µM; in the series on Rift Valley Fever Virus, 74.9 µM. The IC90 with Rubella Virus and with Rift Valley Fever Virus was > 100 µM throughout.

As for `COc1ncc(-c2cn([C@@H]3O[C@H](CO[P@@](=O)(N[C@@H](C)C(=O)OC(C)C)Oc4ccccc4)[C@H](O)C3(C)F)cn2)c(OC)n1` (stereo partly shown) [CDW3-007], the CC50 in the series on Huh7 cells is > 200 µM; in the series “in vitro [5]”, 274 µM. Also, the results for the IC50 with Dengue Virus 2 [4] and in the series with Dengue Virus 4 (DENV4) were 45 µM and > 50 µM, respectively.

In the case of `CC(C)OC(=O)[C@H](C)N[P@](=O)(OC[C@H]1O[C@@H](n2cnc(-c3cnc(N)nc3)c2)C(C)(F)[C@H]1O)Oc1ccccc1` (stereo partly shown) [CDW3-014], the IC50 in the series on Ebola Virus [6] was 10.5 µM. For the same compound, the inhibition at 50 µM came to 13.6% with Dengue Virus 2 [4] (DENV2, read-out: % inhib) and 27% in the series with Dengue Virus 4 (DENV4, read-out: % inhib). In the series “in vitro [5]”, the CC50 was 33.4 µM.

As for `COc1ncc(-c2cn([C@@H]3O[C@H](CO[P@@](=O)(N[C@@H](C)C(=O)OC(C)C)Oc4ccccc4)[C@H](O[P@@](=O)(N[C@@H](C)C(=O)OC(C)C)Oc4ccccc4)C3(C)F)cn2)c(OC)n1` (stereo partly shown) [CDW3-015], the IC50 worked out at 2.95 µM with SARS-CoV-2; 12.4 µM in the series with SARS-CoV-2 (WA-1); 47 µM in the series with Ebola Virus [6]; 16 µM with Dengue Virus 4 (DENV4); 19.7 µM in the series on SARS-CoV-2 (Omicron). The CC50 was 1.74 µM in the series “in vitro [7]”, > 100 µM in [8], > 100 µM in series [9] and > 200 µM in “in vitro [5]”. Moreover, it took 26 µM to reach the 90% level in the series with Dengue Virus 4 (DENV4) (IC90).

For `CNc1cc(-c2cncn2[C@@H]2O[C@H](CO[P@@](=O)(N[C@@H](C)C(=O)OC(C)C)Oc3ccccc3)[C@H](O[P@@](=O)(N[C@@H](C)C(=O)OC(C)C)Oc3ccccc3)C2(C)F)nc(N)n1` (stereo partly shown) [CEM-034], the EC50 with Chikungunya Virus was found to be 19.9 µM; in series [10] it was 19.7 µM. The IC50 in the series with SARS-CoV-2 was determined as 6.47 µM; in the series with SARS-CoV-2 (WA-1), 13.6 µM; with Ebola Virus [6], 13.5 µM; in the series on Dengue Virus 2 [4], 14 µM; in the series on Dengue Virus 4 (DENV4) it was 18 µM; in the series on SARS-CoV-2 (Omicron), 22.6 µM. For the same compound, the CC50 in [11] is > 100 µM; in the series “in vitro [7]” it was 35.4 µM; in “in vitro [12]”, > 100 µM; in [13] it was 15.4 µM; in [9], 4.05 µM; in the series “in vitro [5]”, 85 µM.

Consider `Cc1ccc(-c2cn([C@@H]3C[C@@H](O)[C@H](CO)O3)c(=O)[nH]c2=O)s1` [CHK-03, 1-((2S,4R,5S)-4-hydroxy-5-(hydroxymethyl)tetrahydrofuran-2-yl)-5-(5-methylthiophen-2-yl)pyrimidine-2,4(1H,3H)-dione], for which the CC50 in “in vitro [14]” is > 100 µM. Moreover, the EC90 in the series with Epstein-Barr virus turned out to be 18.7 µM. In addition, in the series on Epstein-Barr virus (read-out: EC50), the EC50 was determined as 2.97 µM.

Regarding `Nc1nc(=O)n([C@@H]2C[C@@H](O)[C@H](CO)O2)cc1-c1ccco1` [CHK-05, 4-amino-5-(furan-2-yl)-1-((2S,4R,5S)-4-hydroxy-5-(hydroxymethyl)tetrahydrofuran-2-yl)pyrimidin-2(1H)-one], the figures for the EC50 with Enterovirus-71, in the series on Dengue Virus 2 [15] and with Epstein-Barr virus (read-out: EC50) were 24 µM, 79 µM and 69.9 µM, respectively.

Turning to `Nc1ccn(C[C@@H](CO)OCP(=O)(O)O)c(=O)n1` [Cidofovir, reference compound], the CC50 in the series “in vitro [14]” is > 100 µM. In addition, in the series on Epstein-Barr virus, the concentration giving a half-maximal response (EC50) came out at 3.92 µM and the 90% effect level (EC90) was put at 71.4 µM.

With `O=c1nc(NO)ccn1[C@@H]1O[C@H](CO)[C@@H](O)[C@H]1O` [EIDD-1931], in the series on MERS Coronavirus, the EC50 was 0.036 µg/mL and 0.034 µg/mL.

Regarding `NC(=O)c1nc(F)c[nH]c1=O` [Favipiravir, reference compound], the midpoint of the response with Ebola Virus [1] (Zaire ebolavirus, Vero), the EC50, lay at 12 µM.

Turning to `COc1nc(N)ncc1-c1cn(COCCO)cn1` [JT-001], the CC50 in the series “in vitro [14]” was > 100 µM. For the same compound, in the series on Epstein-Barr virus, the EC90 was > 100 µM. Further, in the series with Epstein-Barr virus (read-out: EC50), the EC50 turned out to be 59.9 µM.

For the compound `COc1ncc(-c2cn(COCCO)cn2)c(OC)n1` [JT-004], the CC50 in “in vitro [14]” was > 100 µM. For the same compound, the EC90 with Epstein-Barr virus is > 100 µM. Also, the EC50 with Epstein-Barr virus (read-out: EC50) stood at 86.8 µM.

Turning to `CCC(CC)COC(=O)[C@H](C)NP(=O)(OCCOCn1cnc(-c2cnc(OC)nc2OC)c1)Oc1ccccc1` (stereo partly shown) [JT-005], in the series on Ebola Virus [1] (read-out: EC50), the EC50 came out at 12 µM. Moreover, the CC50 with Vero is > 100 µM.

With `COc1ncc(-c2cn(COCCOC(C)=O)cn2)c(OC)n1` [JT-006], in the series “in vitro [14]”, the CC50 is > 100 µM. In addition, the EC90 in the series on Epstein-Barr virus was > 100 µM. For the same compound, in the series on Epstein-Barr virus (read-out: EC50), the EC50 was 79.9 µM.

Regarding `CCC(CC)COC(=O)[C@H](C)N[P@](=O)(OCCOCn1cncc1-c1cnc(OC)nc1OC)Oc1ccccc1` [JT-092], the CC50 in [16] and in [9] was > 100 µM each time. In addition, the IC50 turned out to be 29.7 µM in the series on SARS-CoV-2 (WA-1) and 82.8 µM in the series on SARS-CoV-2 (WA). Further, the IC90 with SARS-CoV-2 (WA-1) was found to be 273 µM; with SARS-CoV-2 (WA), 172 µM.

Regarding `CCC(=O)OCCOCn1cnc(-c2cnc(OC)nc2)c1` [JT-093], the IC50 in the series on Dengue Virus 2 [4] was 21 µM; in the series with Dengue Virus 4 (DENV4) it was > 50 µM.

As to `CCC(CC)COC(=O)[C@H](C)N[P@](=O)(OCCOCn1cncc1-c1cnc(N)nc1OC)Oc1ccccc1` [JT-096], the CC50 in series [16] was > 100 µM; in [9] it was 73.3 µM; in the series “in vitro [5]”, 28 µM. Besides, the IC50 in the series on SARS-CoV-2 (WA-1) was 10.5 µM; in the series with Ebola Virus [6] it was 52 µM; in the series with SARS-CoV-2 (WA), 31.4 µM; in the series with Dengue Virus 2 [4], > 28 µM; in the series with Dengue Virus 4 (DENV4), > 42 µM. For the same compound, the IC90 turned out to be 46.3 µM in the series on SARS-CoV-2 (WA-1) and 106 µM with SARS-CoV-2 (WA).
